Data on one molecule can be found in patent US12440439B2, “Mesoporous sponge spicule and methods thereof” (Xiamen University, priority 2019, dated 2025).

This series can be described thus: Transdermal penetration enhancement experiments in vitro (Franz diffusion transdermal device, tape peeling, microplate reader). It is filed as in vitro ADME, pig. Particulars: transdermal for 16 h. On the procedure:
Among them, delivery system groups of the second group and the third group are saturated 30% ethanol solutions of the Coumarin 6, and delivery volumes are […].
The aforementioned layers are divided into groups, soaked in 4 mL of a mixture of the phosphate buffer solution and methanol (a volume ratio is 1:1) to respectively extract the Coumarin 6 in a 1st layer of stratum corneum (SC1), 2nd-5th layers of stratum corneum (SC2), 6th-10th layers of stratum corneum (SC3), the epidermal layer (Epi), and the dermal layer (Der) at 200 r/min (revolutions per minutes (rpm)) at room temperature (e.g., 20-30° C.).

Turning to `CCN(CC)c1ccc2cc(-c3nc4ccccc4s3)c(=O)oc2c1` [Control, Coumarin 6], the “Content of the Coumarin 6 in SC1” value (1st layer of stratum corneum) is given as 0.005 ± 0.001 μg/1.77 cm^2. For the same molecule, the “Content of the Coumarin 6 in SC2” value (2nd-5th layers of stratum corneum) stood at 0.009 ± 0.002 μg/1.77 cm^2. In addition, under “6th-10th layers of stratum corneum”, the “Content of the Coumarin 6 in SC3” value was found to be 0.019 ± 0.003 μg/1.77 cm^2. Also, the “Content of the Coumarin 6, Total” value (all skin layers and receptor compartment) is reported as 0.199 ± 0.047 μg/1.77 cm^2. For the same molecule, for the setting “dermal layer”, the “Content of the Coumarin 6 in Der” value was 0.015 ± 0.011 μg/1.77 cm^2. In addition, the “Content of the Coumarin 6 in Epi” value (epidermal layer) stood at 0.021 ± 0.007 μg/1.77 cm^2. Also, the “Content of the Coumarin 6 in Rec” value (receptor compartment) amounted to 0.130 ± 0.043 μg/1.77 cm^2.
